Legend:
[1] = even if several grams are taken; cited from earlier work
[2] = test system: pancreatin
Protocol: Both media are from the company Biorelevant®, Ltd. in Great Britain. In addition, in some experiments porcine pancreas is added (Panzytrat® 40,000, Fa. Allergan).
The pancreatin is used in the form of the commercially available product Panzytrat® 40,000 from the Allergan company. The whole mixture is stirred on a hotplate at 50° C.; the course of the reaction is determined and followed by continuous recording of the acid number over time.

Compound	duration of ketosis [1]	cleavage by pancreatin [2]
CC(O)CC(=O)O (stereo not shown) [3-hydroxybutyric acid]	three to four	
3-acetylacetobutyric acid tri-diglycerol ester [3-acetylaceto-BHB tri-diglycerol ester]		cleaved by pancreatin
3-acetylacetobutyric acid mono-diglycerol ester [3-acetylaceto-BHB mono-diglycerol ester]		cleaved by pancreatin
3-acetylacetobutyric acid di-diglycerol ester [3-acetylaceto-BHB di-diglycerol ester]		cleaved by pancreatin
